The source of these data is article PMC10982999, “Structure-Guided Design and Optimization of Covalent VHL-Targeted Sulfonyl Fluoride PROTACs” (Journal of Medicinal Chemistry, 2024).

For data set [1], the target named is T1, VCB and FAM-conjugated HIF1α-derived peptide interaction (Homo sapiens, UniProt P40337).
T1 construct: human VHL (UniPort entry P40337, residues 1 -213); 6xHis followed by TEV site (N, cleaved yes); made in house; host or cells: E. coli One Shot BL21(DE3)
Description: Competitive fluorescence polarization (FP) assay, VCB / FAM-conjugated HIF1α-derived peptide. As to conditions: 2 h incubation between VCB and compound; read-out: apparent IC50 (FP). The data set is classed as binding. On the procedure:
We next focused on developing a second generation covalent VHL binder with enhanced potency and occupancy.
Figure 2 (A) Structure of VHL-SF2. […] (E) Competition pull-down assay from live cells between VHL-SF2-Biotin and VHL-SF2. HEK293T cells were pretreated with DMSO or varying concentrations of VHL-SF2 for 2 h at 37 °C. The cells were lysed and treated with DMSO or VHL-SF2-Biotin (50 μM) for 2 h at room temperature. A pull-down with streptavidin beads was conducted, after which the protein was resolved on SDS/PAGE. VHL and loading control GAPDH levels were visualized by Western blotting.
Figure S3. (A) Gel-based VHL labelling of VHL-SF1-Biotin, and (B) VHL-SF2-Biotin. VCB protein was pre-treated with DMSO, VHL-SF1-Biotin or VHL-SF2-Biotin for 2 h at room temperature, after which protein was resolved on SDS -PAGE and visualised by Neutravidin […]
Figure S4. Dose-response of VHL-SF1 following a 2 h pre-incubation in the presence of VCB and FAM-conjugated HIF1α-derived peptide, assessed by fluorescence polarization. Data […]
Figure S5. (A) VCB was incubated with DMSO for 24 h and subjected to intact-protein LC-MS (VHL: 24784 Da). […]
Fluorescence polarization assay protocol […]
well plate and the plate was shaken for 1 min, before reading fluorescence polarization on a Perkin Elmer Envision 2101 plate reader (excitation 486 nm, emission 535 nm). […]

Another data set is described as follows: physchem. As to conditions: buffer. On the procedure: Table S1. Sulfonyl fluoride warhead stability for VHL-SF1 and VHL-SF2 was determined in
(1 picture or pasted object on this page, not shown here)

The test system of the next data set is BRD4-HiBiT HEK293T cells. As to conditions: 18 h, 70-0.01 μM.

For the compound `Cc1cc([C@H](C(=O)N2C[C@H](S(=O)(=O)F)C[C@H]2C(=O)N[C@@H](CC(=O)OC(C)(C)C)c2ccc(-c3scnc3C)cc2)C(C)C)on1` [VHL-SF2, tert-Butyl (S)-3-((2S,4R)-4-(Fluorosulfonyl)-1-((R)-3-methyl-2-(3-methylisoxazol-5-yl)butanoyl)pyrr-olidine-2-carboxamido)-3-(4-(4-methylthiazol-5-yl)phenyl)propanoate], the IC50 in data set [1] is 35 µM. For the same compound, the half-life in “physchem” (pH 4) is 38 h; in “physchem” (pH 5), 14 h; in the data set “physchem” (pH 6), 15 h; in “physchem” (pH 7.5), 0.4 h. Further, the “cytotoxicity (CellTiter-Glo)” value with BRD4-HiBiT HEK293T cells is “no evidence of cytotoxicity”.
